Measured values reported in ChEMBL document CHEMBL1152844, “Synthesis and anti-HIV studies of 2- and 3-adamantyl-substituted thiazolidin-4-ones” (Eur J Med Chem, 2009).
The source made the active and inactive calls.

Key:
[1] = test system: Vesicular stomatitis virus; assay: Antiviral activity against Vesicular stomatitis virus infected in HEL cells; format: functional, organism-based
[2] = test system: Human alphaherpesvirus 2; assay: Antiviral activity against Herpes simplex virus type 2 infected in HEL cells; format: functional, organism-based
[3] = test system: Human respirovirus 3; assay: Antiviral activity against Parainfluenza virus type 3 infected in african green monkey Vero cells; format: functional, organism-based
[4] = test system: Human immunodeficiency virus 2; assay: Antiviral activity against HIV2 ROD infected in human CEM cells assessed as inhibition of virus-induced cytopathicity after 4 days; format: functional, organism-based; settings: Human immunodeficiency virus 2, ROD, CCRF-CEM, 96 h
[5] = Selectivity index, ratio of CC50 for human CEM cells to EC50 for HIV1 3B; format: toxicity, cell-based, CCRF-CEM; settings: read-out: Ratio CC50/EC50
[6] = test system: Respiratory syncytial virus; assay: Antiviral activity against Respiratory syncytial virus infected in human HeLa cells; format: functional, organism-based
[7] = test system: Vesicular stomatitis virus; assay: Antiviral activity against Vesicular stomatitis virus infected in human HeLa cells; format: functional, organism-based
[8] = test system: Sindbis virus; assay: Antiviral activity against Sindbis virus infected in african green monkey Vero cells; format: functional, organism-based
[9] = test system: Influenza B virus; assay: Antiviral activity against Influenza virus type B infected in MDCK cells; format: functional, organism-based
[10] = test system: Punta Toro virus; assay: Antiviral activity against Punta Toro virus infected in african green monkey Vero cells; format: functional, organism-based
[11] = test system: Coxsackievirus B4; assay: Antiviral activity against Coxsackievirus B4 infected in african green monkey Vero cells; format: functional, organism-based
[12] = test system: CCRF-CEM; assay: Cytotoxicity against HIV-infected human CEM cells; format: cell-based; settings: ccrf-cem
[13] = test system: Vaccinia virus; assay: Antiviral activity against Vaccinia virus infected in HEL cells; format: functional, organism-based; settings: Orthopoxvirus vaccinia
[14] = test system: Mammalian orthoreovirus 1; assay: Antiviral activity against Reovirus 1 infected in african green monkey Vero cells; format: functional, organism-based
[15] = test system: Human alphaherpesvirus 1; assay: Antiviral activity against Herpes simplex virus type 1 infected in HEL cells; format: functional, organism-based
[16] = test system: Coxsackievirus B4; assay: Antiviral activity against Coxsackievirus B4 infected in human HeLa cells; format: functional, organism-based
[17] = test system: Feline coronavirus; assay: Antiviral activity against Feline coronavirus infected in crandel feline kidney cells; format: functional, organism-based
[18] = test system: Human immunodeficiency virus 1; assay: Antiviral activity against HIV1 3B infected in human CEM cells assessed as inhibition of virus-induced cytopathicity after 4 days; format: functional, organism-based; settings: Human immunodeficiency virus 1, 3B, CCRF-CEM, 96 h
[19] = test system: Influenza A virus; assay: Antiviral activity against Influenza virus type A H3N2 infected in MDCK cells; format: functional, organism-based
[20] = test system: Influenza A virus; assay: Antiviral activity against Influenza virus type A H1N1 infected in MDCK cells; format: functional, organism-based

Cc1cc(N2C(=O)CSC2C23CC4CC(CC(C4)C2)C3)nc(C)n1 (centres undefined)
inactive: Activity [1] | Activity [2] | Activity [3] | Activity [6] | Activity [7] | Activity [8] | Activity [9] | Activity [10] | Activity [11] | Activity [13] | Activity [14] | Activity [15] | Activity [16] | Activity [17] | Activity [19] | Activity [20]
< 1.6: selectivity ratio [5]
94 µM: CC50 [12]
≥ 58.2 µM: EC50 [4] | EC50 [18]

Cc1cc(C)nc(N2C(=O)CSC2CC23CC4CC(CC(C4)C2)C3)n1 (centres undefined)
8.6 µM: EC50 [18]
inactive: Activity [1] | Activity [2] | Activity [3] | Activity [6] | Activity [7] | Activity [8] | Activity [9] | Activity [10] | Activity [11] | Activity [13] | Activity [14] | Activity [15] | Activity [16] | Activity [17] | Activity [19] | Activity [20]
3: selectivity ratio [5]
30 µM: EC50 [4]
27 µM: CC50 [12]

O=C1CSC(c2c(F)cccc2Cl)N1CCC12CC3CC(CC(C3)C1)C2 (centres undefined)
4.7: selectivity ratio [5]
inactive: Activity [1] | Activity [2] | Activity [3] | Activity [6] | Activity [7] | Activity [8] | Activity [9] | Activity [10] | Activity [11] | Activity [13] | Activity [14] | Activity [15] | Activity [16] | Activity [17] | Activity [19] | Activity [20]
18.5 µM: CC50 [12]
3.8 µM: EC50 [18]
≥ 10.1 µM: EC50 [4]

Cc1ccnc2c1NC(=O)c1cccnc1N2C1CC1 [NEVIRAPINE]
> 50 µM: EC50 [4] | CC50 [12]

O=C1CSC(c2c(F)cccc2Cl)N1CC12CC3CC(CC(C3)C1)C2 (centres undefined)
inactive: Activity [1] | Activity [2] | Activity [3] | Activity [6] | Activity [7] | Activity [8] | Activity [9] | Activity [10] | Activity [11] | Activity [13] | Activity [14] | Activity [15] | Activity [16] | Activity [17] | Activity [19] | Activity [20]
10: selectivity ratio [5]
≥ 10.5 µM: EC50 [4]
2 µM: EC50 [18]
20.2 µM: CC50 [12]

Cc1cc(N2C(=O)CSC2CC23CC4CC(CC(C4)C2)C3)nc(C)n1 (centres undefined)
< 1.9: selectivity ratio [5]
inactive: Activity [1] | Activity [2] | Activity [3] | Activity [6] | Activity [7] | Activity [8] | Activity [9] | Activity [10] | Activity [11] | Activity [13] | Activity [14] | Activity [15] | Activity [16] | Activity [17] | Activity [19] | Activity [20]
≥ 11.2 µM: EC50 [4] | EC50 [18]
22.1 µM: CC50 [12]

O=c1[nH]cnc2c1ncn2[C@H]1CC[C@@H](CO)O1 [DIDANOSINE]
> 250 µM: CC50 [12]
> 54: selectivity ratio [5]
